Legend:
Test in all cases: Protein kinase inhibition assay
Type in all cases: biochemical
Arg(h) = Arg(h) (Homo sapiens, UniProt P42684); conditions: read-out: percent residual activity of Arg(h)
Protocol: (§1) Certain compounds were tested for activity in protein kinase inhibition assays. All substrates were dissolved and diluted to working stocks in de-ionized water, apart from histone H1 (10× working stock in 20 mM MOPS pH 7.0), PDKtide (10× working stock in 50 mM Tris pH 7.0) ATF2 (which is typically stored at a 20× working stock in 50 mM Tris pH 7.5, 150 mM NaCl, 0.1 mM EGTA, 0.03% Brij-35, 50% glycerol, 1 mM benzamidine, 0.2 mM PMSF and 0.1% R-mercaptoethanol), KKLNRTLSFAEPG (SEQ ID NO:203) and RRRLSFAEPG (SEQ ID NO:204) (50 mM HEPES pH 7.4) and GGEEEEYFELVKKKK (SEQ ID NO:205) (20 mM MOPS pH 7.0). All kinases were pre-diluted to a 10× working concentration prior to addition into the assay. The composition of the dilution buffer for each kinase is detailed below.
(§2) In a final reaction volume of 25 μl, Arg (h) (5-10 mU) is incubated with 8 mM MOPS pH 7.0, 0.2 mM EDTA, 50 μM EAIYAAPFAKKK (SEQ ID NO:206), 10 mM MgAcetate and [gamma-33P-ATP] (specific activity approx. 500 cpm/pmol, concentration as required). The reaction is initiated by the addition of the MgATP mix. After incubation for 40 minutes at room temperature, the reaction is stopped by the addition of 5 μl of a 3% phosphoric acid solution. 10 pi of the reaction is then spotted onto a P30 filtermat and washed three times for 5 minutes in 75 mM phosphoric acid and once in methanol prior to drying and scintillation counting.

SAPK2a(h) = SAPK2a(h) (Homo sapiens, UniProt Q16539); conditions: read-out: percent residual activity of SAPK2a(h)
SAPK2a(h), sequence (Q16539 whole entry): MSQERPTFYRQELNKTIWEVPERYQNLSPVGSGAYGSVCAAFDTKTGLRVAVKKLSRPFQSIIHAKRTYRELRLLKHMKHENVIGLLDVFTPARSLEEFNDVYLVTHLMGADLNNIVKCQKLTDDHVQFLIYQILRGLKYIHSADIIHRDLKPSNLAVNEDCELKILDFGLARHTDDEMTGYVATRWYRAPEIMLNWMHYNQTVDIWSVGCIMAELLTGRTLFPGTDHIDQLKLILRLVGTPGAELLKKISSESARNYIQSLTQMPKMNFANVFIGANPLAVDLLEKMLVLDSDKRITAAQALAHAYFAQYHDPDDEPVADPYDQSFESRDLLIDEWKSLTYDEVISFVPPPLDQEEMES
Protocol: as §1
as §2, with “SAPK2a” for “Arg”, “25” for “8”, “Tris” for “MOPS”, “7.5, 0.02” for “7.0, 0.2”, “EGTA, 0.33 mg/ml myelin basic protein,” for “EDTA, 50 μM EAIYAAPFAKKK (SEQ ID NO:206),”, “μl” for “pi”

TrkB(h) = TrkB(h) (Homo sapiens, UniProt Q16620); conditions: read-out: percent residual activity of TrkB(h)
TrkB(h), sequence (Q16620 32-822): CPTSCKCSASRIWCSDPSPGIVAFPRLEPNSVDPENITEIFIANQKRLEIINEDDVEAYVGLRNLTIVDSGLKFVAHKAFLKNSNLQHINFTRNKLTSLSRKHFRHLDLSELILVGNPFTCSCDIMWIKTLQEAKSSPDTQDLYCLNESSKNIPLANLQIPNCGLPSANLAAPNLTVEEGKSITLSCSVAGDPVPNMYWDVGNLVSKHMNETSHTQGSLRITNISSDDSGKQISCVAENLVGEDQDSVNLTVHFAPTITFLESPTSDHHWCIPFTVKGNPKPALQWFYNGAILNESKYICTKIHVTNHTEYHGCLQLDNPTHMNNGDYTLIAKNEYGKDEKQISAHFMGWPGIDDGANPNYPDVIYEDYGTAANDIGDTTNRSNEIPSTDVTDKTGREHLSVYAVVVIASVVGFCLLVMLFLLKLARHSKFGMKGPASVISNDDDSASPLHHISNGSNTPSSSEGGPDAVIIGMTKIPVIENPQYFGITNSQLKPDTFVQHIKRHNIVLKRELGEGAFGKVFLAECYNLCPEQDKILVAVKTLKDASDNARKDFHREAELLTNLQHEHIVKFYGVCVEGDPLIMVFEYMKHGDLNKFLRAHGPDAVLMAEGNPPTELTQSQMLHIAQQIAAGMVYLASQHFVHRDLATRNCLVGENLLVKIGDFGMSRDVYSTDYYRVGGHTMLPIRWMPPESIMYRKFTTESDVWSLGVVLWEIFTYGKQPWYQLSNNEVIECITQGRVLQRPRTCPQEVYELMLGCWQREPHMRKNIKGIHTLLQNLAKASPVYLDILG
Protocol: as §1
as §2, with “TrkB” for “Arg”, “0.1 mg/ml poly(Glu, Tyr) 4:1,” for “50 μM EAIYAAPFAKKK (SEQ ID NO:206),”, “μl” for “pi”, “Filtermat A” for “P30 filtermat”

Abl(m) = Abl(m) (Mus musculus, UniProt P00520); conditions: read-out: percent residual activity of Abl(m)
Abl(m), sequence (P00520 whole entry): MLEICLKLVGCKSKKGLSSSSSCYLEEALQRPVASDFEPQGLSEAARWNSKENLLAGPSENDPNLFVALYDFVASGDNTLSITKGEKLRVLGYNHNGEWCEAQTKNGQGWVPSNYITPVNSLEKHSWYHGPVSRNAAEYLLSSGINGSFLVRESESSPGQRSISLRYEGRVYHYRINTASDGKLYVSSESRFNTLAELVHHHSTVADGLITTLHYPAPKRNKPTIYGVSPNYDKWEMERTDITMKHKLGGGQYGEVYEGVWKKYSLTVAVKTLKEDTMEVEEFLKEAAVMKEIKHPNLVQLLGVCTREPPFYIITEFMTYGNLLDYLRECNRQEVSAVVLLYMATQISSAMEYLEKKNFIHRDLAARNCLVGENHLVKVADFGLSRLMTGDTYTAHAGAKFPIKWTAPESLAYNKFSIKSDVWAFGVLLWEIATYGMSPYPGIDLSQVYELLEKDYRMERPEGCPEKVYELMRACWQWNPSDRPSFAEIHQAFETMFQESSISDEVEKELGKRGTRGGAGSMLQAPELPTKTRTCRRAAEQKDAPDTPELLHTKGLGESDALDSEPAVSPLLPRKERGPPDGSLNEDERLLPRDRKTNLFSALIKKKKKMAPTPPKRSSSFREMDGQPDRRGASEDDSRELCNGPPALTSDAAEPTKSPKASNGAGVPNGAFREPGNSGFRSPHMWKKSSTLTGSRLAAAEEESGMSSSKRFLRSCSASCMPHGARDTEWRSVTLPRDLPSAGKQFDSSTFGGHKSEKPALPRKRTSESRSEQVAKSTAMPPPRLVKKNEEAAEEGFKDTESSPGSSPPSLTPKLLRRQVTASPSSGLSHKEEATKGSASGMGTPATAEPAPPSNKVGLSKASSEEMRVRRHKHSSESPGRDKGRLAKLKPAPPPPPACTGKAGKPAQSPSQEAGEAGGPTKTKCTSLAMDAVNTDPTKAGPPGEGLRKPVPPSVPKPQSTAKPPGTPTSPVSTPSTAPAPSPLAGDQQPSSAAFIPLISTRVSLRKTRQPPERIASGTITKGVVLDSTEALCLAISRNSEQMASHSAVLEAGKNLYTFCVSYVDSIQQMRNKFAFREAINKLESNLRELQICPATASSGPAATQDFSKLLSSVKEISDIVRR
Protocol: as §1
as §2, with “Abl (m)” for “Arg (h)”, “μl” for “pi”

PRAK(h) = PRAK(h) (Homo sapiens, UniProt Q8IW41); conditions: read-out: percent residual activity of PRAK(h)
PRAK(h), sequence (Q8IW41 whole entry): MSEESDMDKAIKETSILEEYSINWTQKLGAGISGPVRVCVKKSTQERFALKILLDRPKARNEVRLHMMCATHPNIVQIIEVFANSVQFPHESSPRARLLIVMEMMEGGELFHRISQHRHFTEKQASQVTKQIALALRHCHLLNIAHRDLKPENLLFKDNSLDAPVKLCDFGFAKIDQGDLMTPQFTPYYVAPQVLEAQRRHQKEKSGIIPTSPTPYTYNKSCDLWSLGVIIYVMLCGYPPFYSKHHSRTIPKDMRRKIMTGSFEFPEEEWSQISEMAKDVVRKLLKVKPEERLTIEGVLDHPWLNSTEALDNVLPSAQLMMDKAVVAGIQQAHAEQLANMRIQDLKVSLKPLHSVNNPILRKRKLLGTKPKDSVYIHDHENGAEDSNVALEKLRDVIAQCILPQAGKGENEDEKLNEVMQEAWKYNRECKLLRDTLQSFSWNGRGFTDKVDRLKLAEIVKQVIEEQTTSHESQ
Protocol: as §1
In a final reaction volume of 25 μl, PRAK (h) (5-10 mU) is incubated with 50 mM Na R-glycerophosphate pH 7.5, 0.1 mM EGTA, 30 μM KKLRRTLSVA (SEQ ID NO:212), 10 mM MgAcetate and [gamma-33P-ATP) (specific activity approx. 500 cpm/pmol, concentration as required). The reaction is initiated by the addition of the MgATP mix. After incubation for 40 minutes at room temperature, the reaction is stopped by the addition of 5 μl of a 3% phosphoric acid solution. […]

PKCθ(h) = PKCθ(h) (Homo sapiens, UniProt Q04759); conditions: read-out: percent residual activity of PKCθ(h)
PKCθ(h), sequence (Q04759 whole entry): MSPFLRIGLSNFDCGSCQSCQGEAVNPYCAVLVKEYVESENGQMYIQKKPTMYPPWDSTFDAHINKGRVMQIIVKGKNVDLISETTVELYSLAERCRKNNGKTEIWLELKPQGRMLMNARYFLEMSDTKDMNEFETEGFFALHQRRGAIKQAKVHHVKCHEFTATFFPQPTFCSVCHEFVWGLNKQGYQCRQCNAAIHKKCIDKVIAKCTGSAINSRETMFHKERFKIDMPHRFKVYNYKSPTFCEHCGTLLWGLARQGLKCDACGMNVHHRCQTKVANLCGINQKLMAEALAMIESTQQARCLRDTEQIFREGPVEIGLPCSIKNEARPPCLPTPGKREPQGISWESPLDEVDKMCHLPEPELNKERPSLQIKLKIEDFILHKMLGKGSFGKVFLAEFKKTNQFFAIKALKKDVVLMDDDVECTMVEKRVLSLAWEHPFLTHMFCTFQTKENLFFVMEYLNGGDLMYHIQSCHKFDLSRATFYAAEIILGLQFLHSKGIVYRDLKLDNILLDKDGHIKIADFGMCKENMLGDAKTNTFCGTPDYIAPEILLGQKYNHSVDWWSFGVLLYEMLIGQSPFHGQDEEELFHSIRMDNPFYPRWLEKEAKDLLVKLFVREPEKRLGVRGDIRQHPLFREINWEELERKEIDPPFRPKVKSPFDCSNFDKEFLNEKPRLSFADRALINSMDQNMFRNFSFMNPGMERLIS
Protocol: as §1
as §2, with “PKCθ” for “Arg”, “0.1 mg/ml histone H1,” for “50 μM EAIYAAPFAKKK (SEQ ID NO:206),”, “μl” for “pi”

Arg(h), sequence (P42684 whole entry): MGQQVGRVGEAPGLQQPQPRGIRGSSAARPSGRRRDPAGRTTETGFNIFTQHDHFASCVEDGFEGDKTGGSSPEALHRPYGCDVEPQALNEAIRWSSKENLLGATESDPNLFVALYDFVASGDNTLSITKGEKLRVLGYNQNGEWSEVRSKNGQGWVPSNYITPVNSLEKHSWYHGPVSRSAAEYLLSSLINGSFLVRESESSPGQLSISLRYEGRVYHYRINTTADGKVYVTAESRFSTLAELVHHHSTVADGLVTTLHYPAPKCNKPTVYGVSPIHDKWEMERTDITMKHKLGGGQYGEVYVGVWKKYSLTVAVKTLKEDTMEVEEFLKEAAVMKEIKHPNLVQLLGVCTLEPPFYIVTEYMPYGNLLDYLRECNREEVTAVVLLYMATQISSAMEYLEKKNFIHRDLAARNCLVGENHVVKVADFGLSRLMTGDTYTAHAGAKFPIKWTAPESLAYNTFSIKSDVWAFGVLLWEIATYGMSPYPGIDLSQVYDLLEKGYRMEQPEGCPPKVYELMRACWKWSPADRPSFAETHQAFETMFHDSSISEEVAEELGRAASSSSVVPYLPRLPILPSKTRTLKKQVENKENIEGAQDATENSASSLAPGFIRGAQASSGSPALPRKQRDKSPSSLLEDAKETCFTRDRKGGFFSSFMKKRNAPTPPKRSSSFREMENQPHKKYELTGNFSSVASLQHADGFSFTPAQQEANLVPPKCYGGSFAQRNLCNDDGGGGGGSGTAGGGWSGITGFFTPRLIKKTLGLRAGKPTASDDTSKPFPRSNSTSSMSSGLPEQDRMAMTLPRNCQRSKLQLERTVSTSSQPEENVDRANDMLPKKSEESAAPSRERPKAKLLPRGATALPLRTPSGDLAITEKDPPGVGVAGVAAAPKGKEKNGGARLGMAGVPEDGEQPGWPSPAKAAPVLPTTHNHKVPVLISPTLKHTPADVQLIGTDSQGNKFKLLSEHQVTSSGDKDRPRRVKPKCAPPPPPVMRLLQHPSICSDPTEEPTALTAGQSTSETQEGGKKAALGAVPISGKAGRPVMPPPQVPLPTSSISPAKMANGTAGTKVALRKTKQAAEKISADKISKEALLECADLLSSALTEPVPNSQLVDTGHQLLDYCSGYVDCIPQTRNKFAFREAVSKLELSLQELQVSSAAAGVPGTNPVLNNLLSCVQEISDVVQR

remaining activity at 2.5 µM (Arg(h)) [%]	remaining activity at 2.5 µM (SAPK2a(h)) [%]	remaining activity at 2.5 µM (TrkB(h)) [%]	remaining activity at 2.5 µM (Abl(m)) [%]	remaining activity at 2.5 µM (PRAK(h)) [%]	remaining activity at 2.5 µM (PKCθ(h)) [%]	Compound
94	103	118	104	111	108	CC(=O)N1CCN(c2ccc3c(=O)c(C(=O)NCCN4CCCC4)c4n(C)c5ccccc5n4c3n2)CC1 [Compound B-1]
46	97	44	9	105	91	CN1CCCC1CCNC(=O)c1cn2c3c(c(N4CCC(c5cnccn5)C4)c(F)cc3c1=O)Oc1cc3ccccc3cc1-2 (stereo not drawn) [Compound A-1]
